The experiment has as its target cAMP and cAMP-inhibited cGMP 3',5'-cyclic phosphodiesterase 10A (Homo sapiens, UniProt Q9Y233). Kind of experiment: Florescence Polarization Assay: The activity of the compounds in accordance with the present invention as PDE10 inhibitors may be readily determined without undue experimentation using a fluorescence polarization (FP) methodology well known in the art (Huang, W., et al., J. Biomol Screen, 2002, 7: 215). […] PDE10A2 was amplified from human fetal brain cDNA (Clontech, Mountain View, Calif.) using a forward primer corresponding to nucleotides 56-77 of human PDE10A2 (Accession No. AF127480, Genbank Identifier 4894716), containing a Kozak consensus sequence. On the technique in general: In fluorescence polarisation assays a small probe gives low polarisation when free and higher when bound to something large.

The values below come from ChEMBL document CHEMBL3638862, “Radiolabeled PDE10 inhibitors” (2014).

Sequence of cAMP and cAMP-inhibited cGMP 3',5'-cyclic phosphodiesterase 10A (Q9Y233 whole entry): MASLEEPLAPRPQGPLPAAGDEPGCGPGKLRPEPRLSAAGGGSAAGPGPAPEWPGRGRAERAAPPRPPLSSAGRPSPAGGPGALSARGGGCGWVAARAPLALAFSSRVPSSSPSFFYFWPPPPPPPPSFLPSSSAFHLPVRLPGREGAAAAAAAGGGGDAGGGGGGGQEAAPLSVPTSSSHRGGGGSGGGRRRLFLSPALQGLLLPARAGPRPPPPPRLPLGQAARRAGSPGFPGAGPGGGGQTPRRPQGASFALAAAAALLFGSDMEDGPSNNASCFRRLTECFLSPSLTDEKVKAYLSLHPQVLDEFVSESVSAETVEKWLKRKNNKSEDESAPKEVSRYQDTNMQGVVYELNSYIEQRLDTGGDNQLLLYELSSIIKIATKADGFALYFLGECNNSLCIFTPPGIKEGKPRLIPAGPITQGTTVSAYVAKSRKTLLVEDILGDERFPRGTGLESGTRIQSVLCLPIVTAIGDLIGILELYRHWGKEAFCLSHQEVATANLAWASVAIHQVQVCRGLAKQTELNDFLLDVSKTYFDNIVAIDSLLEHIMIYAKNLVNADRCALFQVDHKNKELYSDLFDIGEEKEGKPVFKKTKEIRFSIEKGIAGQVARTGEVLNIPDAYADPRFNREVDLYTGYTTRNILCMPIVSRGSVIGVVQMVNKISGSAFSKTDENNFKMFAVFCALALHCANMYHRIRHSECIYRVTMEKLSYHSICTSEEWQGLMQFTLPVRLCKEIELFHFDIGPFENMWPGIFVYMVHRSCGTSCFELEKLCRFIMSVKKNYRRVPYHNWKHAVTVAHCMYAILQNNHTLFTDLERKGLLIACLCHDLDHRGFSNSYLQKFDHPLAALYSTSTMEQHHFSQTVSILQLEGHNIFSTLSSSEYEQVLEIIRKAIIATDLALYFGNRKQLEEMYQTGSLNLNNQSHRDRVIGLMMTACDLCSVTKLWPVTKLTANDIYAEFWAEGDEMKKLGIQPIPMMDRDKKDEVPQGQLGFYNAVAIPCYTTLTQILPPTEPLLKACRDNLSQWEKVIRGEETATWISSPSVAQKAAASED

For orientation: Ki means a measure of affinity in units of concentration, obtained from inhibition or displacement. High values mean lower affinity, low ones higher affinity. `COc1ccc(-n2c(CCN3C(=O)c4cccc(OCC(F)(F)F)c4C3=O)nc3ccccc3c2=O)cc1` gave an inhibition constant (Ki) of 790 pM. That is a sub-nanomolar value.
